Values joined by “and” are separate entries in the source; they are usually repeats but may differ in a detail not shown here. Equal values may be shown once. Read-outs that look alike come from different tables or passages of the source.
Legend:
[1] = test system: pain induced by tooth pulp stimulation; type: in vivo, New Zealand white rabbits
tooth pain = conditions: background statement, patients; cited from earlier work
rabbits [2] = conditions: rabbit, in vivo
[3] = test system: pain induced by tooth pulp stimulation; set-up: species or system rabbits; conditions: rabbit, in vivo; read-out: EC50 value and 95% confidence interval for dental local analgesia
rabbits [4] = conditions: rabbit, in vivo; remark: listed apart in the source
rabbits [5] = conditions: rabbit, in vivo; remark: listed apart in the source

With `CCN(CC)CC(=O)Nc1c(C)cccc1C` [lidocaine] the “Percentage change in pain-inducing threshold voltage” value (shortened to “Percentage change”) ([1]; rabbit, in vivo) was 30 ± 29% and 28 ± 36% and 26 ± 30% and 20 ± 32% and 24 ± 32% and 17 ± 21%, the “effect on the threshold voltage compared to the solvent control, in words” value ([1]; rabbit, in vivo) was “markedly increased the threshold voltage” and the “synergistic activity with TTX, in words” value ([1]; rabbit, in vivo) was “did not show a similar synergistic activity”.
For `CCN(CC)CCOC(=O)c1ccc(N)cc1` [procaine], the “Percentage change” value ([1]; 2% anesthetic, 20 μL to tooth pulp cavity, 10 min) was −2 ± 20%, the “Percentage change” value ([1]; 2% anesthetic, 20 μL to tooth pulp cavity, 20 min) was −2 ± 20% and the “Percentage change” value ([1]; 2% anesthetic, 20 μL to tooth pulp cavity, 30 min) was −4 ± 23%. The “Percentage change” value ([1]; 2% anesthetic, 20 μL to tooth pulp cavity, 40 min) was −3 ± 22%, the “Percentage change” value ([1]; 2% anesthetic, 20 μL to tooth pulp cavity, 50 min) was −2 ± 28% and the “Percentage change” value ([1]; 2% anesthetic, 20 μL to tooth pulp cavity, 60 min) was −1 ± 26%. The “effect on the threshold voltage compared to the solvent control, in words” value ([1]; rabbit, in vivo) was “no clear effect on the threshold voltage” and the “period of partial pain relief as topical anesthetic for tooth pain” value (tooth pain) was “about 1 hour”.
For `CCCCNc1ccc(C(=O)OCCN(C)C)cc1` [tetracaine], the “Percentage change” value ([1]; 1% tetracaine (equal to 33 mM), 20 μL to tooth pulp cavity, 10 min) was 27 ± 30%, the “Percentage change” value ([1]; 1% tetracaine (equal to 33 mM), 20 μL to tooth pulp cavity, 20 min) was 32 ± 38% and the “Percentage change” value ([1]; 1% tetracaine (equal to 33 mM), 20 μL to tooth pulp cavity, 30 min) was 29 ± 31%. The “Percentage change” value ([1]; 1% tetracaine (equal to 33 mM), 20 μL to tooth pulp cavity, 40 min) was 32 ± 22%, the “Percentage change” value ([1]; 1% tetracaine (equal to 33 mM), 20 μL to tooth pulp cavity, 50 min) was 22 ± 15% and the “Percentage change” value ([1]; 1% tetracaine (equal to 33 mM), 20 μL to tooth pulp cavity, 60 min) was 16 ± 18%. The “Percentage change” value ([1]; Table 7, 1% tetracaine, 20 μL to tooth pulp cavity, 15 min) was 27 ± 30%, the “Percentage change” value ([1]; Table 7, 1% tetracaine, 20 μL to tooth pulp cavity, 45 min) was 32 ± 22% and the “effect on the threshold voltage compared to the solvent control, in words” value ([1]; rabbit, in vivo) was “markedly increased the threshold voltage”. For the same compound, the “period of partial pain relief as topical anesthetic for tooth pain” value (tooth pain) was “about 1 hour”.
For `NC1=N[C@H](O)[C@H]2[C@H]3O[C@]4(O)O[C@@H]([C@@H](O)[C@@]2(N1)[C@@H]4O)[C@]3(O)CO` [tetrodotoxin, Tetrodotoxin], the “rabbits manifesting increased excretion in the respiratory tract” value (rabbits [2]) was 4 out of 10, the EC50 [3] was 1040 ± 30 µM and the “onset of the effect of TTX increasing the threshold voltage” value ([1]; rabbit, in vivo) was 5 min. The “time at which peak of effect on threshold voltage was reached” value ([1]; rabbit, in vivo) was 1 h, the ALP (rabbits [4]) was 69 ± 17 U/L and 71 ± 23 U/L and the ALT (rabbits [4]) was 67 ± 43 U/L and 53 ± 19 U/L. For the same compound, the BUN (rabbits [4]) was 8.4 ± 0.9 mmol/L and 8.5 ± 1.7 mmol/L, the CO2 in serum (rabbits [4]) was 26.4 ± 1.2 mmol/L and 30.0 ± 2.5 mmol/L and the “Ca^2+ in serum” value (rabbits [4]) was 3.26 ± 0.18 mmol/L and 3.34 ± 0.12 mmol/L. For the same compound, the Cre (rabbits [4]) was 109 ± 12 µmol/L and 99 ± 6 µmol/L, the GTP (rabbits [4]) was 5.2 ± 1.3 U/L and 5.7 ± 2.1 U/L and the HCT (rabbits [4]) was 38.5 ± 3.4% and 33.6 ± 1.9%. The HGB (rabbits [4]) was 12.4 ± 1.0 g/dL and 11.3 ± 0.6 g/dL, the IP (rabbits [4]) was 1.66 ± 0.23 mmol/L and 1.46 ± 0.40 mmol/L and the “K^+ in serum” value (rabbits [4]) was 3.8 ± 0.3 mmol/L and 3.8 ± 0.1 mmol/L. The LAP (rabbits [4]) was 109 ± 11 µmol/L and 108 ± 10 µmol/L, the MCH (rabbits [4]) was 22.2 ± 1.4 pg and 22.5 ± 1.1 pg and the MCHC (rabbits [4]) was 32.4 ± 1.3 g/dL and 33.6 ± 0.6 g/dL. For the same compound, the MCV (rabbits [4]) was 68.5 ± 2.8 fL and 66.9 ± 2.1 fL, the “Na^+ in serum” value (rabbits [4]) was 141.1 ± 1.1 mmol/L and 141.7 ± 1.8 mmol/L and the PLT (rabbits [4]) was 141 ± 120 ×10^3/μl and 159 ± 37 ×10^3/μl. The TBA (rabbits [4]) was 13.5 ± 12.0 U/L and 14.5 ± 9.2 U/L, the TP (rabbits [4]) was 60 ± 6 g/L and 57 ± 6 g/L and the WBC (rabbits [4]) was 4.2 ± 1.2 ×10^3/μl and 6.6 ± 2.4 ×10^3/μl. For the same compound, the “effect on the blood cellular or biochemical parameters, in words” value (rabbits [4]) was “did not have any significant effect”, the “RR (respiratory rate)” value (rabbits [5]) was 99 ± 11 and 102 ± 2 and 102 ± 6 and 91 ± 10 and 94 ± 12 and 99 ± 5 and the “effect on ECG, in words” value (rabbits [5]) was “did not suggest any significant effect”. For the same compound, the “effect on heart rate or respiratory rate, in words” value (rabbits [5]) was “did not significantly modify the heart rate or respiratory rate”.

Source: patent US6599906B1, “Method of local anesthesia and analgesia” (priority 2000, dated 2003)
